# Target: T1, human TLR8 (hTLR8) (Homo sapiens, UniProt Q9NR97)
# T1 construct: expressed in transfected cells
# T1 sequence (Q9NR97 27-1041): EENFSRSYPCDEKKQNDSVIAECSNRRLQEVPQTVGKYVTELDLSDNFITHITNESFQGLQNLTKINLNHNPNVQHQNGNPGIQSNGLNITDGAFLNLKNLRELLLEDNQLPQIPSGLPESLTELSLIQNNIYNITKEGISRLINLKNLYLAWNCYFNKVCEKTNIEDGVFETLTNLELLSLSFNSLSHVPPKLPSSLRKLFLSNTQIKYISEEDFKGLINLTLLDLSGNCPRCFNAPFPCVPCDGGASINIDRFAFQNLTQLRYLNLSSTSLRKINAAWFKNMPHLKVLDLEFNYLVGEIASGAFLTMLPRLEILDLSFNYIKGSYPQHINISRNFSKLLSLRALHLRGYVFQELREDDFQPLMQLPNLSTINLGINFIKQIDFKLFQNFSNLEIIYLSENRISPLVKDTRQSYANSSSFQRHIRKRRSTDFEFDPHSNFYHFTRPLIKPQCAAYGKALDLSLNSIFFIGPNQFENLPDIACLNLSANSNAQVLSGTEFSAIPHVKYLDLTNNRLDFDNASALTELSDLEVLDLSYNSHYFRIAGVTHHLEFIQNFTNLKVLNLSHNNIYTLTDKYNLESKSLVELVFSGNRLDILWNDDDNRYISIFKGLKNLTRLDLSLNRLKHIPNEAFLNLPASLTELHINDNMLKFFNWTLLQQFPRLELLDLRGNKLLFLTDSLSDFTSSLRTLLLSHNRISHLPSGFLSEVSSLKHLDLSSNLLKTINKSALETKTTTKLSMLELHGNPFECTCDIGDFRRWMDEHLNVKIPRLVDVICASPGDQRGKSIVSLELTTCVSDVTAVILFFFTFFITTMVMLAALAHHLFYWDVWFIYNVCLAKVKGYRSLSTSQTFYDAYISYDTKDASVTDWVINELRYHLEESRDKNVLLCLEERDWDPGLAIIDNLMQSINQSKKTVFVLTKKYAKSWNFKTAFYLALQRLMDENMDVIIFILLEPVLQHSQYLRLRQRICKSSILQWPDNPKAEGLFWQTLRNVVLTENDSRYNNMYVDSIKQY
# Test: Antagonist screen, hTLR8-NFκB-293 cells, NF-κB-luciferase reporter, with EC50 of R848
# Type: cell-based
# Conditions: compound at 0.5, 5, 50 μg/ml; EC50 concentration of R848; 16 h; NF-κB-luciferase
# Description: The method is described in greater detail as follows. The cells for each individual cell clone (hTLR3-NFκB-293, hTLR7-NFκB-293, hTLR8-NFκB-293 and hTLR9-NFκB-293) were counted and seeded one day before the stimulation at 1.5×10^4 cells per well in 96-well cell culture plates. To become adherent the cells were incubated after seeding overnight at 37° C. in 5% CO2 humidified air.
# The screen for each compound was performed at the same time for all of the receptors TLR3, TLR7, TLR8 and TLR9. Up to fifteen test compounds, each assayed in duplicate at each of three different final concentrations (0.5 μg/ml, 5 μg/ml, and 50 μg/ml), were used for 16 h cell stimulation on a single multiwell culture plate. A 4× final concentration master plate was created to prepare the different test compounds before they were added to the cells.
# Controls were added as duplicates individually for each cell clone on the cell culture plate. Positive controls were used as follows (final concentrations): 50 μg/ml poly(I:C) for hTLR3-NFκB-293; 8 μM resiquimod (R848) for hTLR7-NFκB-293; 30 μM R848 for hTLR8-NFκB-293; and 2.5 μM CpG-ODN 2006 for hTLR9-NFκB-293. Media alone was used as negative control. After addition of controls and small molecules, the cell clones were additionally stimulated with the EC50 concentration of the appropriate receptor-specific ligand.
# The mean value of wells H2 and H5 (each with cells and EC50 concentration of the appropriate receptor-specific ligand) divided by the mean of wells H3 and H6 (each with cells alone) yielded the baseline response (i.e., fold induction of luciferase activity) to EC50 concentration of the appropriate receptor-specific ligand.
# After 16 h stimulation the supernatant was removed and the cells treated with lysis buffer and stored at −80° C. before measuring.
# For each screen result a graphical documentation was performed.
# The baseline result (measured with addition of the EC50 concentration of the receptor-specific ligand) for each cell culture plate was measured as described above. Antagonistic effects were measured by down regulation compared to the baseline. Antagonists were scored as follows: • 13: compounds for which there was clear down regulation at 0.5 μg/ml, 5 μg/ml, and 50 μg/ml; • 12: compounds for which there was clear down regulation at 5 μg/ml and 50 μg/ml; • 11: compounds for which there was clear down regulation only at 50 μg/ml; • —: compounds for which there was no clear down regulation even at 50 μg/ml. Agonists
# Results were expressed as fold induction over baseline luciferase activity measured in the absence of R848. […] Additional screening was performed in like manner using additional small molecules selected from another library or specifically prepared for this purpose. Scoring is reported as above but as applied to TLR8.
row,Compound,"hTLR8 (inhibitory effect, antagonist score)"
1,"Cl.Clc1ccc(C(OCCN2CCCCC2)c2ccccc2)cc1 (stereo not shown) [compound 793, Cloperastinehydrochloride]",— (compounds for which there was no clear down regulation even at 50 μg/ml)
2,"CC(CN(C)C)CN1c2ccccc2Sc2ccccc21.CC(CN(C)C)CN1c2ccccc2Sc2ccccc21.O=C(O)C(O)C(O)C(=O)O (stereo not shown) [compound 842, Trimeprazine tartrate]",11 (compounds for which there was clear down regulation only at 50 μg/ml)
3,"CN1CCCCC1CCN1c2ccccc2Sc2ccc([S+](C)[O-])cc21.O=S(=O)(O)c1ccccc1 (stereo not shown) [compound 529, Mesoridazine besylate]",— (compounds for which there was no clear down regulation even at 50 μg/ml)
4,"CN1CCC2C(C1)c1ccccc1N2Cc1ccccc1 (stereo not shown) [compound 455, Mebhydroline 1,5 naphtalenedisulfonate]",— (compounds for which there was no clear down regulation even at 50 μg/ml)
5,NC(=O)c1cc(N)c2c(c1N)C(=O)c1ccccc1C2=O [compound 1158],— (compounds for which there was no clear down regulation even at 50 μg/ml)
6,CCN(CC)CCCN(CC(=O)C1c2ccc(Cl)cc2NC(=O)c2ccccc21)C(=O)c1ccccc1 (stereo not shown) [compound 1013],— (compounds for which there was no clear down regulation even at 50 μg/ml)
7,COC(=O)c1cccc2c1-c1ccccc1/C2=N/O [compound 904],"13 (compounds for which there was clear down regulation at 0.5 μg/ml, 5 μg/ml, and 50 μg/ml)"
8,Prochlorperazinedimaleate [compound 399],11 (compounds for which there was clear down regulation only at 50 μg/ml)
9,"CCN(CC)C(C)CN1c2ccccc2Sc2ccccc21.Cl (stereo not shown) [compound 840, Ethopropazinehydrochloride]",11 (compounds for which there was clear down regulation only at 50 μg/ml)
10,"CCCC(C(=O)OCCN(CC)CC)(c1ccccc1)c1ccccc1.Cl [compound 778, Proadifen hydrochloride]",11 (compounds for which there was clear down regulation only at 50 μg/ml)
11,CC1CCN(C(=O)c2cccc3c2-c2ccccc2C3=O)CC1 [compound 1243],11 (compounds for which there was clear down regulation only at 50 μg/ml)
12,CN(CCO)C(=O)c1cccc2c1-c1ccccc1C2=O [compound 890],11 (compounds for which there was clear down regulation only at 50 μg/ml)
13,"COc1ccc2[nH]c3c(c2c1)CCN=C3C [compound 621, Methoxy-6-harmalan]",— (compounds for which there was no clear down regulation even at 50 μg/ml)
14,CCOCCOC(=O)c1cc([N+](=O)[O-])cc2c1-c1c(cc([N+](=O)[O-])cc1[N+](=O)[O-])C2=C(C#N)C#N [compound 1241],— (compounds for which there was no clear down regulation even at 50 μg/ml)
15,"CN(C)CCCN1c2ccccc2Sc2ccccc21.Cl [compound 693, Promazinehydrochloride]",— (compounds for which there was no clear down regulation even at 50 μg/ml)
16,"c1ccc2c(c1)[nH]c1cnccc12 [compound 470, norharman]",11 (compounds for which there was clear down regulation only at 50 μg/ml)
17,O=C1c2ccccc2C(=O)c2c1ccc1c(=O)n(-c3ccccc3)[nH]c21 [compound 1042],"13 (compounds for which there was clear down regulation at 0.5 μg/ml, 5 μg/ml, and 50 μg/ml)"
18,"Clc1ccccc1C(c1ccccc1)(c1ccccc1)n1ccnc1 [compound 267, Clotrimazole]",12 (compounds for which there was clear down regulation at 5 μg/ml and 50 μg/ml)
19,"CN1CCN(C(c2ccccc2)c2ccccc2)CC1.Cl [compound 510, Cyclizine hydrochloride]",— (compounds for which there was no clear down regulation even at 50 μg/ml)
